Data on 18 molecules can be found in US8569344B2, “N-piperidinyl acetamide derivatives as calcium channel blockers” (Zalicus Pharmaceuticals Ltd., priority 2008, dated 2013).

Where two headings read alike, the source gives them in different places.

For series [1], the target named is T1, human α1G T-type channels (Homo sapiens, UniProt O43497).
T1 construct: expressed in transfected cells; host or cells: HEK 293
In words: T-type calcium channel block, whole cell patch clamp in HEK cells (α1G). The series is classed as cell-based. Particulars: HEK cells, patch clamp, mainly non-inactivated protocol; values above 10 μM shown as 10 μM, below 0.30 μM shown as 0.30 μM; read-out: T-type Calcium Channel Block α1G IC50.

The target in series [2] is T2, human α1H T-type channels (Homo sapiens, UniProt O95180).
T2 construct: expressed in transfected cells; host or cells: HEK 293
T2 sequence (O95180 whole entry): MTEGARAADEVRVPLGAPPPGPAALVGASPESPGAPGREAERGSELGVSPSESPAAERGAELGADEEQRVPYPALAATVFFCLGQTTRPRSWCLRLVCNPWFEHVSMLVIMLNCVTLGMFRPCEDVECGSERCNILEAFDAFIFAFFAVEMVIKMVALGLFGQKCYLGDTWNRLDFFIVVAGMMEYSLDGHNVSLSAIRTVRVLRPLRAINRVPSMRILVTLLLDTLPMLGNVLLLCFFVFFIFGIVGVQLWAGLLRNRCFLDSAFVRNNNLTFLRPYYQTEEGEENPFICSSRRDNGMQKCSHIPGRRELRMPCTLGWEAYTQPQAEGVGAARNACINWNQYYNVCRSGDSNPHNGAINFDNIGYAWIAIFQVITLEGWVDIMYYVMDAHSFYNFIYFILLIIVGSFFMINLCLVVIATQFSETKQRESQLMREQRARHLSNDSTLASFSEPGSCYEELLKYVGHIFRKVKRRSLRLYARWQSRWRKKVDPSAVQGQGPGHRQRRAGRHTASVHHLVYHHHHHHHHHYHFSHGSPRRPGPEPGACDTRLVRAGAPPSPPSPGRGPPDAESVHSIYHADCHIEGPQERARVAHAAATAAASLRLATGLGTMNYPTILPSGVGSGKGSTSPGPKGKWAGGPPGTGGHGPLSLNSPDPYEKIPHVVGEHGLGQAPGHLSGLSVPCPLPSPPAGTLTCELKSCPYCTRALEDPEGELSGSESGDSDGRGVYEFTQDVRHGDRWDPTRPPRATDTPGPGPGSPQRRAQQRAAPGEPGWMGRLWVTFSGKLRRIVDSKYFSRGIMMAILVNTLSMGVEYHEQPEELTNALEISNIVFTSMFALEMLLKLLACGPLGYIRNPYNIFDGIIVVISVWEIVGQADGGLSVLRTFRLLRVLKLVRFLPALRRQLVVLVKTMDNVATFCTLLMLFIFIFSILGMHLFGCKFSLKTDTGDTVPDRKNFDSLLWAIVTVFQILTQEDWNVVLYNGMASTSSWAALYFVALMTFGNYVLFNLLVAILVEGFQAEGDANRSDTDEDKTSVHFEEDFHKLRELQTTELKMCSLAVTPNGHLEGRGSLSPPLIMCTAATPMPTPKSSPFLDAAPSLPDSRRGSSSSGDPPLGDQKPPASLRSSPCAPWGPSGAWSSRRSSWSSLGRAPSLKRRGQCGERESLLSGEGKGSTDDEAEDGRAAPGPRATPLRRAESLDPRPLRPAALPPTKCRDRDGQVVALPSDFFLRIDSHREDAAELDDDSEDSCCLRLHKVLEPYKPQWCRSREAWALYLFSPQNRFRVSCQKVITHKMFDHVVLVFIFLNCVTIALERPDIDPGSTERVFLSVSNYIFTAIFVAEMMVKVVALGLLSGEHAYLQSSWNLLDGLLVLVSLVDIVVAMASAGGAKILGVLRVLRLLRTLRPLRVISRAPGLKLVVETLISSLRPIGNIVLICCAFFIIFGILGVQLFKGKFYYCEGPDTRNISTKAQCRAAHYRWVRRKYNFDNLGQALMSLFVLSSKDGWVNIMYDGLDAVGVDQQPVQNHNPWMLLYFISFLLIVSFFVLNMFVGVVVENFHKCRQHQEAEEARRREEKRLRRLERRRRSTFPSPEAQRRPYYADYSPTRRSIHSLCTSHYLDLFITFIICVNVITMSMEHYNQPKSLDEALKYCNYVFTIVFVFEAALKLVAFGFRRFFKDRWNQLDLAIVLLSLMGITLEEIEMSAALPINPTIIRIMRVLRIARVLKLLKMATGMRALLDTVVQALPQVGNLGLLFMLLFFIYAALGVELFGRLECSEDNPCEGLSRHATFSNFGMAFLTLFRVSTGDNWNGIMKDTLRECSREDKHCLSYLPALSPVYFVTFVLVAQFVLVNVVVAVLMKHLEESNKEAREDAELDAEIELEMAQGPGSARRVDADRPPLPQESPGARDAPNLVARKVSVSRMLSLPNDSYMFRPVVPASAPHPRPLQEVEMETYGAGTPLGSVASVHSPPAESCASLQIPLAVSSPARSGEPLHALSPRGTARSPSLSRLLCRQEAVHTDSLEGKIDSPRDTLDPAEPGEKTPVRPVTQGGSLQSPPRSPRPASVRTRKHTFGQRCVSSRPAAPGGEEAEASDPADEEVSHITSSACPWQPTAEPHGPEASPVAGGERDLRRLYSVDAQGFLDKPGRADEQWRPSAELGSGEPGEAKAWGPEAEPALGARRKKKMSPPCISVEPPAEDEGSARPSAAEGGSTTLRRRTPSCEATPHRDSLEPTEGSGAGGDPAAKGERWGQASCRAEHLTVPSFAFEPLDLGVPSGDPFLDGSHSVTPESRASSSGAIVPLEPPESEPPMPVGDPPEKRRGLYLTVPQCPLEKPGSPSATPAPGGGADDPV
In words: T-type calcium channel block, whole cell patch clamp in HEK cells (α1H). The series is classed as cell-based. To be noted: HEK cells, patch clamp, mainly non-inactivated protocol; values above 10 μM shown as 10 μM; read-out: T-type Calcium Channel Block α1H IC50.

The next series concerns the target hERG K+ channel (Homo sapiens, UniProt Q12809). As to the kind of experiment: hERG K+ Channel Block. The series is classed as cell-based.
Series [3] concerns absence seizures in GAERS rats. As to the kind of experiment: GAERS (Genetic Absence Epilepsy Rats from Strasbourg) epilepsy model, EEG spike and wave discharges. The series is classed as in vivo, rat. To be noted: for Percent Recording Time in Seizure Activity, Baseline: 60 minutes pre-injection EEG recording; for Percent Recording Time in Seizure Activity, Post-injection / percentage of time in seizure activity compared to both baseline and vehicle: IP 30 mg/kg; for Percent Recording Time in Seizure Activity, Post-injection: 120 minutes post-injection EEG recording starting 15 minutes post-drug. The source says: The GAERS (Genetic Absence Epilepsy Rats from Strasbourg) is noted for its long and frequently recurring absence seizure episodes. […] Eight female GAERS rats, bred in the Ludwig Institute for Cancer Research, were used for this study. Rats weighed between 180 and 250 g and aged between 18 and 26 weeks at the start of the experiment.
Electrodes were made in our laboratory by soldering together gold-plated sockets (220-S02 Ginder Scientific, VA, Canada), stainless steel teflon coated wire (SDR clinical technology, NSW, Australia) and a small stainless steel screw (1.4×3 mm, Mr. Specks, Australia). Animals were anaethetised with inhalation of Isoflurane in equal parts of medical air and oxygen (5% induction, 2.5-1.5% maintenance) or alternatively by intraperitoneal injection with xylazine (10 mg/kg) and ketamine (75 mg/kg). The animals were fixated in a stereotaxic frame by means of ear bars. A midline incision on the scalp was made, skin and connective tissue was scraped and pushed laterally to expose underlying skull. 6 holes were drilled bilaterally, 2 in the frontal bone and 4 in the parietal bone, approximately 2 mm anterior to bregma, and 4 and 10 mm posterior to bregma. 6 electrodes were implanted in the holes, and gold-plated sockets were clipped into 9-pin ABS plug (GS09PLG-220, Ginder Scientific, Canada). 2 two side-anchoring screws were placed laterally into skull to improve strength of cap fixation, then caps were held in place with dental cement.
Post-operatively, animals were given the analgesic Rimadyl (4 mg/kg), placed in their cages on a heat mat, and observed until recovery. Rats were caged separately throughout the study, weighed and health-checked daily, and were allowed 7 days to recover prior to commencement of the experimental procedures. Rats were allowed free access to rodent chow (brand, WA stock feeders) and water under 12:12 light dark conditions in the Biological Research Facility of the Department of Medicine (RMH).
Prior to first drug treatment, rats were tested for absence-type seizures, which are accompanied by generalised spike and wave discharges (SWD) on an EEG recording. Testing, and all further experiments were performed in a quiet, well lit room with rats in their home cages. Rats were connected via 6-channel wire cables, which were cut and soldered to 6 gold-plated pins inserted into a 9 pin socket. Cables were connected to a computer running Compumedics™ EEG acquisition software (Melbourne, Australia). […] On week 1, day 1 after the acclimation period following surgical implantation of subdural electrodes, 4 animals (#1-4) were habituated with the cable connected for 15 minutes, then had their SWDs recorded for 60 minutes as baseline. Immediately following baseline, rats were given one of the test, reference or control articles according to the treatment schedule, and target period was recorded from 15 after injection for 120 minutes. Animals were monitored throughout the experiment, and were kept quietly wakeful during baseline and target periods
The seizure expression for the 60 minutes pre-injection and 120 minutes post-injection EEG recording (starting 15 minutes post-drug administration) was quantified by marking the start and finish of the burst of SWDs. This was done with the assistance of SWCFinder® software which has been custom designed to quantitate GAERS seizures, and researchers were blinded to the nature of the drug administered, whereby the analysis was performed blinded. Standard criteria for GAERS seizures is an SWD burst of amplitude of more than three times baseline, a frequency of 7 to 12 Hz, and a duration of longer than 0.5 s. From this, the total percent time spent in seizure over the 120 minutes post-injection EEG recording was determined (percentage time in seizure) as the primary outcome variable.

In series [4] the test system is spinal nerve ligation model of neuropathic pain. Particulars: rats; Dogrul et al., Pain (2003); cited from earlier work.

Chain of hERG K+ channel (Q12809 whole entry): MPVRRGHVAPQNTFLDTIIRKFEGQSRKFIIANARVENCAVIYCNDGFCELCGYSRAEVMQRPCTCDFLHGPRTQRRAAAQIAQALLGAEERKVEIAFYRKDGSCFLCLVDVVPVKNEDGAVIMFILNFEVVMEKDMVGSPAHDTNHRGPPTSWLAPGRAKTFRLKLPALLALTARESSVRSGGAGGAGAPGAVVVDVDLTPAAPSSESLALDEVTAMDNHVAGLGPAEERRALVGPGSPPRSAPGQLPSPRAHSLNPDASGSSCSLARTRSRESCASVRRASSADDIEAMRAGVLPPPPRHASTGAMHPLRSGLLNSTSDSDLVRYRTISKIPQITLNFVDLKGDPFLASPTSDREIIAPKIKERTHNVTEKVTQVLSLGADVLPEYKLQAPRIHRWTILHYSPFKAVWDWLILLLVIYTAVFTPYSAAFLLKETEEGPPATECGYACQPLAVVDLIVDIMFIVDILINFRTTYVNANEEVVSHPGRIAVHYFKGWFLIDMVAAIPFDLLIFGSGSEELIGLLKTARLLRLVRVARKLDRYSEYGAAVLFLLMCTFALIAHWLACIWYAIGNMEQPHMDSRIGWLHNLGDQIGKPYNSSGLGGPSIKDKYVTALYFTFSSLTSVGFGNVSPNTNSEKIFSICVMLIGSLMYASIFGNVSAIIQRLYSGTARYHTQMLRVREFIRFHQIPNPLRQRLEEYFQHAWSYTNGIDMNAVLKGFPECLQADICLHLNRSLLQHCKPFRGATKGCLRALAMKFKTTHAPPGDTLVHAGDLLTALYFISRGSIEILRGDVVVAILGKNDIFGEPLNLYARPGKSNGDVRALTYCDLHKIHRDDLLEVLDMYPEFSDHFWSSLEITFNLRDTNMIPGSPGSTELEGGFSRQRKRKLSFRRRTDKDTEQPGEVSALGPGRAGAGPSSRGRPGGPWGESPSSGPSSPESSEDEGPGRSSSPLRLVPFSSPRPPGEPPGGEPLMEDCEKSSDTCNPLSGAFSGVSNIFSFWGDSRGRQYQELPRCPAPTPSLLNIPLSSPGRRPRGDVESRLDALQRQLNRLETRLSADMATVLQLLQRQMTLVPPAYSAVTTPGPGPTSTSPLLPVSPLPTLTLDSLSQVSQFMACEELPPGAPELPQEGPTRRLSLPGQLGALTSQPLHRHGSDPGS

One may read the IC50 as the midpoint of a concentration-inhibition curve. Consider `CC(C)(C)NC(=O)CN1CCC(CNC(=O)c2cccc(Cl)c2)CC1` [Compound 364, N-((1-(2-(tert-buylamino)-2-oxoethyl)piperidin-4-yl)methyl)-3-chlorobenzamide], for which the IC50 in series [1] was under 300 nM; in series [2], 230 nM; at hERG K+ channel (human), at least 8300 nM. Besides, in series [3], the “Percent Recording Time in Seizure Activity, Baseline” value came to 12.12 ± 1.82%. In series [3], the “Percent Recording Time in Seizure Activity, Post-injection” value amounted to 0.45 ± 0.20%.
As for `CC(C)(C)NC(=O)CN1CCC(CNC(=O)c2cc(F)cc(F)c2)CC1` [Compound 365, N-((1-(2-(tert-butylamino)-2-oxoethyl)piperidin-4-yl)methyl)-3,5-difluorobenzamide], the IC50 in series [1] amounted to 800 nM; in series [2] it was 560 nM. Besides, in series [3], the “percentage of time in seizure activity compared to both baseline and vehicle” value is “significant decrease”.
For the molecule `CC(C)(C)NC(=O)CN1CCC(CNC(=O)c2cc(F)cc(Cl)c2)CC1` [Compound 367, N-((1-(2-(tert-butylamino)-2-oxoethyl)piperidin-4-yl)methyl)-3-chloro-5-fluorobenzamide], the results for the IC50 (in series [1]; in series [2]; at hERG K+ channel (human)) were under 300 nM, 50 nM and at least 8300 nM, respectively. Also, the “Percent Recording Time in Seizure Activity, Baseline” value in series [3] came out at 9.99 ± 2.07%. Further, in series [3], the “Percent Recording Time in Seizure Activity, Post-injection” value amounted to 0.87 ± 0.44%.
As for `COc1cc(OC)cc(C(=O)NCC2CCN(CC(=O)NC(C)(C)C)CC2)c1` [Compound 368, N-((1-(2-(tert-butylamino)-2-oxoethyl)piperidin-4-yl)methyl)-3,5-dimethoxybenzamide], the IC50 is under 300 nM in series [1], 170 nM in series [2] and at least 8300 nM against hERG K+ channel (human). Besides, the “percentage of time in seizure activity compared to both baseline and vehicle” value in series [3] was “significant decrease”.
Consider `CN(C(=O)CN1CCC(CNC(=O)c2cccc(Cl)c2)CC1)C(C)(C)C` [Compound 543, N-((1-(2-(tert-butyl(methyl)amino)-2-oxoethyl)piperidin-4-yl)methyl)-3-chlorobenzamide], for which the IC50 worked out at 580 nM in series [1], 410 nM in series [2] and 5200 nM against hERG K+ channel.
For the molecule `CN(C(=O)CN1CCC(CNC(=O)c2cc(F)cc(Cl)c2)CC1)C(C)(C)C` [Compound 544, N-((1-(2-(tert-butyl(methyl)amino)-2-oxoethyl)piperidin-4-yl)methyl)-3-chloro-5-fluorobenzamide], the 50% inhibitory concentration (IC50) was under 300 nM in series [1], 170 nM in series [2] and 6000 nM at hERG K+ channel.
With `CN(C(=O)CN1CCC(CNC(=O)c2cccc(OC(F)(F)F)c2)CC1)C(C)(C)C` [Compound 545, N-((1-(2-(tert-butyl(methyl)amino)-2-oxoethyl)piperidin-4-yl)methyl)-3-(trifluoromethoxy)benzamide], the IC50 in series [1] was 470 nM; in series [2] it was 210 nM; against hERG K+ channel, 6600 nM.
Consider `CN(C(=O)CN1CCC(CNC(=O)c2cc(Cl)cc(Cl)c2)CC1)C(C)(C)C` [Compound 552, N-((1-(2-(tert-butyl(methyl)amino)-2-oxoethyl)piperidin-4-yl)methyl)-3,5-dichlorobenzamide], for which the IC50 was under 300 nM in series [1], 60 nM in series [2] and 1800 nM against hERG K+ channel.
As for `COCC(C)(C)NC(=O)CN1CCC(CNC(=O)c2cc(F)cc(OC)c2)CC1` [Compound 567, 3-fluoro-5-methoxy-N-((1-(2-(1-methoxy-2-methylpropan-2-ylamino)-2-oxoethyl)piperidin-4-yl)methyl)benzamide], the IC50 was under 300 nM in series [1], 350 nM in series [2] and at least 17000 nM at hERG K+ channel (human).
Turning to `CC(C)(C)S(=O)(=O)NCCN1CCC(CNC(=O)c2cccc(OC(F)(F)F)c2)CC1` [Compound 574, N-((1-(2-(1,1-dimetylethylsulfonamido)ethyl)piperidin-4-yl)methyl)-3-(trifluoromethoxy)benzamide], the half-maximal inhibitory concentration (IC50) was under 300 nM in series [1], 200 nM in series [2] and 4100 nM against hERG K+ channel.
Turning to `COc1cc(F)cc(C(=O)NCC2CCN(CCNS(=O)(=O)C(C)(C)C)CC2)c1` [Compound 577, N-((1-(2-(1,1-dimethylethylsulfonamido)ethyl)piperidin-4-yl)methyl)-3-fluoro-5-methoxybenzamide], the half-maximal inhibitory concentration (IC50) was under 300 nM in series [1], 450 nM in series [2] and at least 17000 nM against hERG K+ channel (human).
In the case of `CC1(C)COCCN1C(=O)CN1CCC(CNC(=O)c2cc(C(F)(F)F)cc(C(F)(F)F)c2)CC1` [Compound 578, N-((1-(2-(3,3-dimethylmorpholino)-2-oxoethyl)piperidin-4-yl)methyl)-3,5-bis(trifluoromethyl)benzamide], the IC50 in series [1] was under 300 nM; in series [2], 160 nM; against hERG K+ channel, 5400 nM.
Regarding `CN(C(=O)CN1CCC(CNC(=O)c2cccc(Cl)c2)CC1)C(C)(C)C(F)(F)F` [Compound 580, 3-chloro-N-((1-(2-(methyl(1,1,1-trifluoro-2-methylpropan-2-yl)amino)-2-oxoethyl)piperidin-4-yl)methyl)benzamide], the IC50 is under 300 nM in series [1], 220 nM in series [2] and at least 8300 nM at hERG K+ channel (human).
Consider `COc1cc(F)cc(C(=O)NCC2CCN(CC(=O)N(C)C(C)(C)C(F)(F)F)CC2)c1` [Compound 581, 3-fluoro-5-methoxy-N-((1-(2-(methyl(1,1,1-trifluoro-2-methyl-propan-2-yl)amino)-2-oxoethyl)piperidin-4-yl)methyl)benzamide], for which the IC50 in series [1] is under 300 nM; in series [2], 210 nM; against hERG K+ channel it was 11000 nM.
Consider `CN(C(=O)CN1CCC(CNC(=O)c2cc(F)cc(Cl)c2)CC1)C1(C)CCC1` [Compound 583, 3-chloro-5-fluoro-N-((1-(2-(methyl(1-methylcyclobutyl)amino)-2-oxoethyl)piperidin-4-yl)methyl)benzamide], for which the concentration for half-maximal inhibition (IC50) in series [1] is under 300 nM; in series [2], 150 nM; against hERG K+ channel it was 1700 nM.
Turning to `COc1cc(Cl)cc(C(=O)NCC2CCN(CCNC(=O)C3(C(F)(F)F)CC3)CC2)c1` [Compound 590, 3-chloro-5-methoxy-N-((1-(2-(1-(trifluoromethyl)cyclopropanecarbox-amido)ethyl)piperidin-4-yl)methyl) benzamide], the half-maximal inhibitory concentration (IC50) in series [1] is under 300 nM; in series [2], 70 nM; on hERG K+ channel, 2200 nM.
As for `CCC1(C)CC(=O)NC1=O` (stereo not shown) [ethosuximide], in series [4], the “anti-hyperalgesic activity in the spinal nerve ligation model of neuropathic pain” value is reported as “anti-hyperalgesic activity”.
`COCC(=O)O[C@]1(CCN(C)CCCc2nc3ccccc3[nH]2)CCc2cc(F)ccc2[C@@H]1C(C)C` [mibefradil]: the “anti-hyperalgesic activity in the spinal nerve ligation model of neuropathic pain” value in series [4] is “anti-hyperalgesic activity”.
